From article PMC6070996 (Marine Drugs, 2018)

Experiments:
[1] = target: Elastase; set-up: method as in doi:10.1021/np960649a; conditions: cited from earlier work
[2] = target: T1, Thrombin (Bos taurus, UniProt P00735); set-up: method as in doi:10.1021/np960649a; conditions: cited from earlier work
T1 construct: purchased Sigma-Aldrich T4648

[3] = system: plasmin; conditions: cited from earlier work
[4] = system: trypsin; conditions: cited from earlier work
[5] = target: Chymotrypsin; conditions: cited from earlier work
[6] = system: papain; set-up: method as in doi:10.1021/np960649a; conditions: cited from earlier work
[7] = system: isolated rat hepatocytes; set-up: method as in doi:10.2216/i0031-8884-35-6S-111.1; conditions: cited from earlier work
[8] = system: Daphnia magna; conditions: compared with microcystin-LR; cited from earlier work
[9] = system: small crustaceans; set-up: method as in doi:10.2216/i0031-8884-35-6S-111.1, PMID 20405925, PMID 12662108; conditions: cited from earlier work
[10] = system: human hepatoma cell line Huh7; set-up: method as in PMID 27428998; conditions: cited from earlier work
[11] = system: zebrafish eleuthero-embryos; set-up: method as in PMID 24561424; conditions: genes of DNA damage recognition and repair, circadian rhythm; cited from earlier work
[12] = system: mice; conditions: cited from earlier work
[13] = system: PP1; conditions: cited from earlier work
[14] = target: T2, protein phosphatase 1 (PP1) (Oryctolagus cuniculus, UniProt P62139); test: protein phosphatase 1 inhibition assay; assay type: biochemical; set-up: key: - not active; */** small/medium activity; */** small/medium activity; conditions: highest concentration 45.4 μg/mL
T2 construct: purchased England Biolabs, Hitchin, UK (New England Biolabs) 754S
T2 sequence (P62139 whole entry): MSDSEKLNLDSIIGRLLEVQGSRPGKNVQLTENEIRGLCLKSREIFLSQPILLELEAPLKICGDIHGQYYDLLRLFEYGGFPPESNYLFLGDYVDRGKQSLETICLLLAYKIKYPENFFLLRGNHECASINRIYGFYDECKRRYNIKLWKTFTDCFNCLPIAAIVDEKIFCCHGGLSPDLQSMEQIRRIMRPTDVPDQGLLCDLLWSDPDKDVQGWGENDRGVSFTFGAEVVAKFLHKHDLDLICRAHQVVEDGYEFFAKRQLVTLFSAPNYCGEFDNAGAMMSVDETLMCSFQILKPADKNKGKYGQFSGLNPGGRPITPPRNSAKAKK

[15] = system: factor XIa; set-up: method as in PMID 20405925; conditions: cited from earlier work
[16] = target: T1, Thrombin; test: thrombin inhibition assay; assay type: biochemical; set-up: key: - not active; */** small/medium activity; */** small/medium activity; conditions: highest concentration 45.4 μg/mL
[17] = target: T3, elastase from porcine pancreas (Sus scrofa, UniProt P00772); test: elastase inhibition assay; assay type: biochemical; set-up: key: - not active; */** small/medium activity; */** small/medium activity; conditions: highest concentration 45.4 μg/mL
T3 construct: purchased Sigma-Aldrich E0258; host or cells: porcine pancreas
T3 sequence (P00772 27-266): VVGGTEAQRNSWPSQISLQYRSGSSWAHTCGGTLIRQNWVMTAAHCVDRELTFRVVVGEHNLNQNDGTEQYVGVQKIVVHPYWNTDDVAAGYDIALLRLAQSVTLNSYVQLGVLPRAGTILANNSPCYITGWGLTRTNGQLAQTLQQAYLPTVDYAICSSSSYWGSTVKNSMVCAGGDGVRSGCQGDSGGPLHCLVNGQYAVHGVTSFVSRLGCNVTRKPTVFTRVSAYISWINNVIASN

[18] = system: human kallikrein; set-up: method as in PMID 20405925; conditions: cited from earlier work
[19] = system: NCI H460 lung cancer cells; set-up: method as in PMID 18163584; conditions: cited from earlier work
[20] = system: neuro-2A neuroblastoma cells; set-up: method as in PMID 18163584; conditions: cited from earlier work

CCCC(=O)N[C@@H](CCC(N)=O)C(=O)N1CC(C)C2OC(=O)[C@H]([C@@H](C)CC)NC(=O)[C@H](Cc3ccc(O)cc3)N(C)C(=O)[C@H]([C@@H](C)CC)N3C(=O)C(CCC3O)NC(=O)[C@H](CC(C)C)NC(=O)[C@H]21 (stereo partly shown) [Nostopeptin A, [Hmp+Leu+Ahp+Ile+MeTyr+Ile]Gln+BA]
Enzyme Inhibition Elastase IC50 [1]: 1.3 µg/mL | activity against thrombin [2]: inactive | activity against plasmin [3]: inactive | activity against trypsin [4]: inactive | Enzyme Inhibition Chymotrypsin IC50 [5]: 1.4 µg/mL | activity against papain [6]: inactive

CC[C@H](C)[C@@H]1NC(=O)[C@H](Cc2ccccc2)N(C)C(=O)[C@H]([C@@H](C)CC)N2C(=O)[C@H](CC[C@H]2O)NC(=O)[C@H](CCCN=C(N)N)NC(=O)[C@@H](NC(=O)[C@@H](COS(=O)(=O)O)OS(=O)(=O)O)[C@@H](C)OC1=O [CP SS]
toxicity to isolated rat hepatocytes [7]: not toxic | inhibition of plasmin [3]: inhibited plasmin | toxicity against Daphnia magna [8]: even higher than for microcystin-LR | acute effects in small crustaceans [9]: induced acute effects

CCCCCC(=O)N[C@@H](CCC(=O)O)C(=O)N[C@@H]1C(=O)N[C@@H](CCCNC(=N)N)C(=O)N[C@H]2CC[C@@H](O)N(C2=O)[C@@H](Cc2ccccc2)C(=O)N(C)[C@@H](Cc2ccc(O)cc2)C(=O)N[C@@H](C(C)C)C(=O)O[C@@H]1C [CP1020, cyanopeptolin 1020]
anti-inflammatory effects in Huh7 [10]: induction of anti-inflammatory effects | transcriptional alterations of genes in zebrafish eleuthero-embryos [11]: led to transcriptional alterations of genes

CC[C@H](C)[C@H](NC(=O)[C@H](O)Cc1ccc(O)cc1)C(=O)N[C@@H](CCO)C(=O)N[C@@H]1C(=O)N[C@@H](CCO)C(=O)N[C@H]2CC[C@@H](O)N(C2=O)[C@@H](Cc2ccccc2)C(=O)N(C)[C@@H](Cc2ccc(O)cc2)C(=O)N[C@@H](C(C)C)C(=O)O[C@@H]1C [Nostocyclin, [Thr+Hse+Ahp+Phe+MeTyr+Val]Hse+Ile+Hpla]
toxicity in mouse bioassay [12]: not toxic | activity against protein phosphatases ([13]; protein phosphatases): weak activity | IC50 ([13]; read-out: Enzyme Inhibition PP1 IC50): 64 µM

CC[C@H](C)[C@@H]1NC(=O)[C@H](Cc2ccc(O)cc2)N(C)C(=O)[C@H]([C@@H](C)CC)N2C(=O)C(CCC2O)NC(=O)[C@H](CC(C)C)NC(=O)[C@@H]2C(OC1=O)C(C)CN2C(=O)[C@H](CCC(N)=O)NC(C)=O (stereo partly shown) [Nostopeptin B, [Hmp+Leu+Ahp+Ile+MeTyr+Ile]Gln+Ac]
Enzyme Inhibition Elastase IC50 [1]: 11.0 µg/mL | activity against thrombin [2]: inactive | activity against plasmin [3]: inactive | activity against trypsin [4]: inactive | Enzyme Inhibition Chymotrypsin IC50 [5]: 1.6 µg/mL | activity against papain [6]: inactive

CCCCCC(=O)N[C@@H](CC(=O)O)C(=O)N[C@@H]1C(=O)N[C@@H](CCCNC(=N)N)C(=O)N[C@H]2CC[C@@H](O)N(C2=O)[C@@H](Cc2ccccc2)C(=O)N(C)[C@@H](CCc2ccc(O)cc2)C(=O)N[C@@H](C(C)C)C(=O)O[C@@H]1C [CP 1020, [Thr+Arg+Ahp+Phe+MeHty+Val]Asp+HA]
Enzyme Inhibition Protein Phosphatase 1 (activity class) [14]: - | activity against factor XIa [15]: active | Enzyme Inhibition Thrombin (activity class) [16]: - | activity against plasmin [3]: active | Enzyme Inhibition Elastase (activity class) [17]: - | inhibition of trypsin [4]: Picomolar inhibition | activity against chymotrypsin [5]: active | activity against human kallikrein [18]: active | acute effects in small crustaceans [9]: induced acute effects

CCCC(=O)N[C@@H](CCC(N)=O)C(=O)N[C@@H]1C(=O)N[C@@H](CCCNC(N)=O)C(=O)N[C@H]2CC[C@@H](O)N(C2=O)[C@@H]([C@@H](C)CC)C(=O)N(C)[C@@H](Cc2ccc(OC)c(Br)c2)C(=O)N[C@@H](C(C)C)C(=O)O[C@@H]1C [Symplocamide A]
cytotoxic activity to NCI H460 lung cancer cells [19]: cytotoxic activity | IC50 [4]: 80.2 µM | IC50 ([5]; read-out: chymotrypsin IC50): 0.38 µM | cytotoxic activity to neuro-2A neuroblastoma cells [20]: cytotoxic activity
